Reference: PMC5428509, “Irreversible inhibition of BTK kinase by a novel highly selective inhibitor CHMFL-BTK-11 suppresses inflammatory response in rheumatoid arthritis model” (Scientific Reports, 2017)

What was measured:
Experiment in all cases: biochemical
Set-up in all cases: KinomeScan competition binding panel (DiscoveRx), percent of control at 1 uM
Settings in all cases: read-out: Percent Control
[1] = target: T1, ABL1(F317I)-nonphosphorylated (Homo sapiens, UniProt P00519, F317I)
T1 construct: nonphosphorylated
Method in brief: (§1)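 Selectivity profiled across 456 kinases/mutants by KinomeScan binding technology.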

ABL1-nonphosphorylated = target: T2, ABL1-nonphosphorylated (Homo sapiens, UniProt P00519)
T2 construct: nonphosphorylated
Method in brief: as §1

BMX = BMX (Homo sapiens, UniProt P51813)
Method in brief: as §1

BRAF = BRAF (Homo sapiens, UniProt P15056)
Method in brief: as §1

BRAF(V600E) = BRAF(V600E) (Homo sapiens, UniProt P15056, V600E)
Method in brief: as §1

CLK2 = CLK2 (Homo sapiens, UniProt P49760)
Method in brief: as §1

CSNK2A1 = CSNK2A1 (Homo sapiens, UniProt P68400)
Method in brief: as §1

DAPK3 = DAPK3 (Homo sapiens, UniProt O43293)
Method in brief: as §1

DCAMKL2 = target: T3, DCAMKL2 (Homo sapiens, UniProt Q8N568)
T3 construct: gene DCLK2
Method in brief: as §1

DMPK = DMPK (Homo sapiens, UniProt Q09013)
Method in brief: as §1

HASPIN = HASPIN (Homo sapiens, UniProt Q8TF76)
Method in brief: as §1

[2] = target: T4, JAK1(JH2domain-pseudokinase) (Homo sapiens, UniProt P23458)
T4 construct: JH2domain-pseudokinase
Method in brief: as §1

MARK2 = MARK2 (Homo sapiens, UniProt Q7KZI7)
Method in brief: as §1

MET(M1250T) = MET(M1250T) (Homo sapiens, UniProt P08581, M1250T)
Method in brief: as §1

MKK7 = target: T5, MKK7 (Homo sapiens, UniProt O14733)
T5 construct: gene MAP2K7
Method in brief: as §1

OSR1 = target: T6, OSR1 (Homo sapiens, UniProt O95747)
T6 construct: gene OXSR1
Method in brief: as §1

PAK1 = PAK1 (Homo sapiens, UniProt Q13153)
Method in brief: as §1

PCTK1 = target: T7, PCTK1 (Homo sapiens, UniProt Q00536)
T7 construct: gene CDK16
Method in brief: as §1

PHKG2 = PHKG2 (Homo sapiens, UniProt P15735)
Method in brief: as §1

PIK3CA(H1047L) = PIK3CA(H1047L) (Homo sapiens, UniProt P42336, H1047L)
Method in brief: as §1

PIP5K1C = PIP5K1C (Homo sapiens, UniProt O60331)
Method in brief: as §1

PKN2 = PKN2 (Homo sapiens, UniProt Q16513)
Method in brief: as §1

PRKG1 = PRKG1 (Homo sapiens, UniProt Q13976)
Method in brief: as §1

PRP4 = target: T8, PRP4 (Homo sapiens, UniProt Q13523)
T8 construct: gene PRPF4B
Method in brief: as §1

SYK = SYK (Homo sapiens, UniProt P43405)
Method in brief: as §1

Chain of MARK2 (Q7KZI7 whole entry): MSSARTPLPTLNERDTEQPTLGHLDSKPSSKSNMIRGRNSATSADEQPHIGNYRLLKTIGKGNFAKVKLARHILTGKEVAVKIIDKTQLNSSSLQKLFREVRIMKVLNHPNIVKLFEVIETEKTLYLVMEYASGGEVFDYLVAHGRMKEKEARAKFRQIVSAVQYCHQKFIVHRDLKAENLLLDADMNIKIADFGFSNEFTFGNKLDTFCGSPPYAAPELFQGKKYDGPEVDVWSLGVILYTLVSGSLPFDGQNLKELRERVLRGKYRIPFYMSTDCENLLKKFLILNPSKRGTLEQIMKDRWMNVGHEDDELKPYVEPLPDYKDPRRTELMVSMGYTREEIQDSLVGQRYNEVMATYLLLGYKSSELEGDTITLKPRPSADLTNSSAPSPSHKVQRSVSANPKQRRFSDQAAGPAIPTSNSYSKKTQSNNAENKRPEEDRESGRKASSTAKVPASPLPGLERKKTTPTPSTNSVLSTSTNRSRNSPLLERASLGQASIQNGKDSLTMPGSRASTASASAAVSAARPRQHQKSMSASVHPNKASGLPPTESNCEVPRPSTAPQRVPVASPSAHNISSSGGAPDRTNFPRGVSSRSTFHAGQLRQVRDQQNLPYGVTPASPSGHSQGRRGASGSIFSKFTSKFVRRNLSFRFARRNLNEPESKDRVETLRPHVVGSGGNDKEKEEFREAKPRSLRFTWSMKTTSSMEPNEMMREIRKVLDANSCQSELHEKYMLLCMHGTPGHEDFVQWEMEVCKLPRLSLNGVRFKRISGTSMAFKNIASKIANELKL
T4 sequence (P23458 whole entry): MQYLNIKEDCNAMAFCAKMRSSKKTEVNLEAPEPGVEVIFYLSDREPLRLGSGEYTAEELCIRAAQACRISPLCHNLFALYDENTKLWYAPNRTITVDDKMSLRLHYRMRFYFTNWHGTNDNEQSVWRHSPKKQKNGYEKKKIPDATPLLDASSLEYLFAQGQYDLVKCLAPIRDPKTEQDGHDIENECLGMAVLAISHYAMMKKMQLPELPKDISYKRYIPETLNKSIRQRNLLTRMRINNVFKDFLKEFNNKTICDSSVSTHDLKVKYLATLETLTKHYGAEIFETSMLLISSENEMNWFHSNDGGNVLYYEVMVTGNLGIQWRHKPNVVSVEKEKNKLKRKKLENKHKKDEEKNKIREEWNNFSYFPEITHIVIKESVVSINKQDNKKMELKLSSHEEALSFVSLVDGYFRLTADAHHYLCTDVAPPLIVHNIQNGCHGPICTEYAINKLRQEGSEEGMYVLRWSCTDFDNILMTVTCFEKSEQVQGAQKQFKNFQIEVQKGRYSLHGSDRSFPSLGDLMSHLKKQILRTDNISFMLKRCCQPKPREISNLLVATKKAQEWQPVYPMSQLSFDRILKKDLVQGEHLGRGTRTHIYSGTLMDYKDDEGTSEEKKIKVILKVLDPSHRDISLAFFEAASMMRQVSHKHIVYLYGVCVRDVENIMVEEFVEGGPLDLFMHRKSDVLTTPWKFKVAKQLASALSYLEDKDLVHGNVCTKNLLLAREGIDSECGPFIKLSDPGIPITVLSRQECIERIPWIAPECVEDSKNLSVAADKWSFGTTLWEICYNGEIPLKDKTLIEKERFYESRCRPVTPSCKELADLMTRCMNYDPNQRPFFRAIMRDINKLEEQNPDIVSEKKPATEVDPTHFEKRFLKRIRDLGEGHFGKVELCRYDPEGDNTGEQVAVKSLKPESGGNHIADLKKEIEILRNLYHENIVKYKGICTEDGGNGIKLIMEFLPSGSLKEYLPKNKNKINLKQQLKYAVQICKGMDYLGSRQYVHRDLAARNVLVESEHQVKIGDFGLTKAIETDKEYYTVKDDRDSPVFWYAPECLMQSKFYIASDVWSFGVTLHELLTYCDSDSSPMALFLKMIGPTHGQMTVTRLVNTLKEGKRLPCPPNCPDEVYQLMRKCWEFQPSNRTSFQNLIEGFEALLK
T6 sequence (O95747 whole entry): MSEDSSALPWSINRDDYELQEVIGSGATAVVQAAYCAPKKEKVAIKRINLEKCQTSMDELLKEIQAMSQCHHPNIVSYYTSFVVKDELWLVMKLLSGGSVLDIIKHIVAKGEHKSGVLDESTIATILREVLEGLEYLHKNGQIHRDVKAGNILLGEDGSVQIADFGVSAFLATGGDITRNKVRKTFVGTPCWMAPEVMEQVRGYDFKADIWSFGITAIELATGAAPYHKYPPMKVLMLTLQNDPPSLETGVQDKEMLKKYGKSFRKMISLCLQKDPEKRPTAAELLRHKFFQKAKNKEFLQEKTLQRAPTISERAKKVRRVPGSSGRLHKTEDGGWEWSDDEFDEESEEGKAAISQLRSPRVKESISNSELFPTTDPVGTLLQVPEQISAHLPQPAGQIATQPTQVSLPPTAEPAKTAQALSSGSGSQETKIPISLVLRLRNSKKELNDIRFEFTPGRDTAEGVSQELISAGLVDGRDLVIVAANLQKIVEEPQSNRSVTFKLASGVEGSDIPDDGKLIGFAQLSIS
Chain of MET(M1250T) (P08581 whole entry M1250T): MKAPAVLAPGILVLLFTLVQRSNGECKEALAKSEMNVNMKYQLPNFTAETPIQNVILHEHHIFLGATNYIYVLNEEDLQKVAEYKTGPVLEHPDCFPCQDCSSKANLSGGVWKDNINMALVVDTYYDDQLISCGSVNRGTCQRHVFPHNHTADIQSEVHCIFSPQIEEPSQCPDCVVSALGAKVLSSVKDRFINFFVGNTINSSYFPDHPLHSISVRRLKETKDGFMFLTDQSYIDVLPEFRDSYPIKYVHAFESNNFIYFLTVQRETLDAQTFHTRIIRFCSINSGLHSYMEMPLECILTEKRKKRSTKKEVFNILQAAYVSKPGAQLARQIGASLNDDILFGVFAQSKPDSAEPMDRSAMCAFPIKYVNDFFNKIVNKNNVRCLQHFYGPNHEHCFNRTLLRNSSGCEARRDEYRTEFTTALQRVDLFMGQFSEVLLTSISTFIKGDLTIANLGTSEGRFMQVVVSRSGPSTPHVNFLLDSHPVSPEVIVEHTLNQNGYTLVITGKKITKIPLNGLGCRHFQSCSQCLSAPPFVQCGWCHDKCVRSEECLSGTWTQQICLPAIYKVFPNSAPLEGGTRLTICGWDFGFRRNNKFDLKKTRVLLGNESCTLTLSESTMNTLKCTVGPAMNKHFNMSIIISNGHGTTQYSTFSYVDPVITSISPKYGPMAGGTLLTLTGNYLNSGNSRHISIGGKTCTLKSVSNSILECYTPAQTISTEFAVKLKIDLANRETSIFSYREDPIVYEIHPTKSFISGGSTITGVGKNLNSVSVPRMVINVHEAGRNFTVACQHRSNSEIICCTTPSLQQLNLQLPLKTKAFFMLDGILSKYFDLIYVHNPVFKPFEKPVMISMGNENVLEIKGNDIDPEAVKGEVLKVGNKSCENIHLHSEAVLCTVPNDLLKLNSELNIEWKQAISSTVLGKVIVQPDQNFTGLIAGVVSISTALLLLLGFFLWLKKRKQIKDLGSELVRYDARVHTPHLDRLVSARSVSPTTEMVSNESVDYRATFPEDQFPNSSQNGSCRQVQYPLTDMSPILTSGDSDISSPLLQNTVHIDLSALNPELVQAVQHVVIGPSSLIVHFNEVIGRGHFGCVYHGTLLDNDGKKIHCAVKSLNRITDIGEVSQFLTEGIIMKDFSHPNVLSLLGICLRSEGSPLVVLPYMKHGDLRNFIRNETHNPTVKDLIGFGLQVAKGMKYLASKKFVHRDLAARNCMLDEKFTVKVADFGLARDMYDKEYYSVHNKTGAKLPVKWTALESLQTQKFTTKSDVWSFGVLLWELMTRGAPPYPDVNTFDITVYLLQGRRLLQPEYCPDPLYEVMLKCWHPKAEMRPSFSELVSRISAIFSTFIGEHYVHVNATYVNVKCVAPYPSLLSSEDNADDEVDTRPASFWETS
Chain of PIP5K1C (O60331 whole entry): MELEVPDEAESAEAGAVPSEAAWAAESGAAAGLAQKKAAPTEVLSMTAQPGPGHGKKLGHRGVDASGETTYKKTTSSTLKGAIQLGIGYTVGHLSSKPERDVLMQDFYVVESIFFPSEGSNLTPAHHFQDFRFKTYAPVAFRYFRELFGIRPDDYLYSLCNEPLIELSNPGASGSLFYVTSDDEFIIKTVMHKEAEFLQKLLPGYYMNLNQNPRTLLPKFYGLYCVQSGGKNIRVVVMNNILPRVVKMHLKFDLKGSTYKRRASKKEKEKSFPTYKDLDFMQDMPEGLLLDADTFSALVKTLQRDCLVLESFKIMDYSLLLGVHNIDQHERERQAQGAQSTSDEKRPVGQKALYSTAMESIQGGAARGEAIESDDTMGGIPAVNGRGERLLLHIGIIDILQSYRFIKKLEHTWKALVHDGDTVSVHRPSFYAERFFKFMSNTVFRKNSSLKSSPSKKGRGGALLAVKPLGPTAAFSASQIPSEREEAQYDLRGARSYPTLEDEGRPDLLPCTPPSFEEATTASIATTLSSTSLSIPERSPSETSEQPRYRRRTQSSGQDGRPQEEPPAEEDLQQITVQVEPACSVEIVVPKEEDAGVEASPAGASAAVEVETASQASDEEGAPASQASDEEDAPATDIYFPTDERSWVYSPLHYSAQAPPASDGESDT
T5 sequence (O14733 whole entry): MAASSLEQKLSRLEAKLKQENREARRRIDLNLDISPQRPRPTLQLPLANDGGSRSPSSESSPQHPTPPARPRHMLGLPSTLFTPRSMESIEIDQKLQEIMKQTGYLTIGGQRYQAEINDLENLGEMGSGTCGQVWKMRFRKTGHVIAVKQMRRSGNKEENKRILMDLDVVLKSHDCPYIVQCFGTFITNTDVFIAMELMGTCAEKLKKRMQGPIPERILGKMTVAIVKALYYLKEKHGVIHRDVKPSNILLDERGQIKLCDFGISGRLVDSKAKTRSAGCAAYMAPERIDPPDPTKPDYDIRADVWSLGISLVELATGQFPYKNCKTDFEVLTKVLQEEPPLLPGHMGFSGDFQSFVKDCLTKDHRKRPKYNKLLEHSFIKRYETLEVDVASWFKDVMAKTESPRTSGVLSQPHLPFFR

## C=CC(=O)Nc1cc(-n2c(=O)ccc3cnc4ccc(-n5cccn5)cc4c32)ccc1C [CHMFL-BTK-11]
[1]
  remaining binding at 1 µM: 100%
ABL1-nonphosphorylated
  remaining binding at 1 µM: 74%
BMX
  remaining binding at 1 µM: 23%
BRAF
  remaining binding at 1 µM: 93%
BRAF(V600E)
  remaining binding at 1 µM: 100%
CLK2
  remaining binding at 1 µM: 100%
CSNK2A1
  remaining binding at 1 µM: 92%
DAPK3
  remaining binding at 1 µM: 100%
DCAMKL2
  remaining binding at 1 µM: 100%
DMPK
  remaining binding at 1 µM: 100%
HASPIN
  remaining binding at 1 µM: 59%
[2]
  remaining binding at 1 µM: 82%
MARK2
  remaining binding at 1 µM: 92%
MET(M1250T)
  remaining binding at 1 µM: 100%
MKK7
  remaining binding at 1 µM: 77%
OSR1
  remaining binding at 1 µM: 96%
PAK1
  remaining binding at 1 µM: 100%
PCTK1
  remaining binding at 1 µM: 100%
PHKG2
  remaining binding at 1 µM: 100%
PIK3CA(H1047L)
  remaining binding at 1 µM: 85%
PIP5K1C
  remaining binding at 1 µM: 82%
PKN2
  remaining binding at 1 µM: 100%
PRKG1
  remaining binding at 1 µM: 100%
PRP4
  remaining binding at 1 µM: 93%
SYK
  remaining binding at 1 µM: 93%
